Data on 30 compounds can be found in patent US20090209577A1, “Novel Triazolopyridine Compounds” (PFIZER INC., priority 2004, published 2009).

Structures are written as SMILES. pIC50: −log10 of the molar value. Counter-ions that a name gives are not always drawn.

The target of this experiment is T1, human p38 kinase alpha (Homo sapiens, UniProt Q16539).
T1 construct: The coding region of the human p38a cDNA was obtained by PCR-amplification from RNA isolated from the human monocyte cell line THP.1; made in house; host or cells: E. coli DH10B
T1 sequence (Q16539 whole entry): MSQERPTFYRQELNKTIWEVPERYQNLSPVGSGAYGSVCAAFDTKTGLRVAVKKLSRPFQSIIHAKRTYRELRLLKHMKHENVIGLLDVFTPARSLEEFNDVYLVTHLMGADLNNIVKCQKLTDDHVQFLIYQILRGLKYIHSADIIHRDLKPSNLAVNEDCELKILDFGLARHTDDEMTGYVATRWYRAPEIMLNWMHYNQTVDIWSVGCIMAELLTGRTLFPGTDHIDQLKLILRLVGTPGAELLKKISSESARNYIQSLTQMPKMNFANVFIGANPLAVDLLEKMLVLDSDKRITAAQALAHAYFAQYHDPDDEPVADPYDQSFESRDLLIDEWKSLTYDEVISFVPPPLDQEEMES
The experiment in a line: p38 kinase in vitro assay (PHAS-I / 32P-ATP format or EGFRP / 33P-ATP format). It counts as biochemical. The note with it: activated human p38 kinase alpha, 50 μM unlabeled ATP; two assay formats, table does not say which. On the procedure:
The ability of compounds to inhibit human p38 kinase alpha was evaluated using two in vitro assay methods. In the first method, activated human p38 kinase alpha phosphorylates a biotinylated substrate, PHAS-I (phosphorylated heat and acid stable protein-insulin inducible), in the presence of gamma ^32P-ATP (^32P-ATP). PHAS-I was biotinylated prior to the assay and provides a means of capturing the substrate, which is phosphorylated during the assay. p38 Kinase was activated by MKK6. Compounds were tested in 10 fold serial dilutions over the range of 100 μM to 0.001 μM using 1% DMSO. Each concentration of inhibitor was tested in triplicate.
All reactions were carried out in 96 well polypropylene plates. Each reaction well contained 25 mM HEPES pH 7.5, 10 mM magnesium acetate and 50 μM unlabeled ATP. Activation of p38 was required to achieve sufficient signal in the assay. Biotinylated PHAS-1 was used at 1-2 μg per 50 μl reaction volume, with a final concentration of 1.5 μM. Activated human p38 kinase alpha was used at 1 μg per 50 μl reaction volume representing a final concentration of 0.3 μM. Gamma ^32P-ATP was used to follow the phosphorylation of PHAS-1. ^32P-ATP has a specific activity of 3000 Ci/mmol and was used at 1.2 μCi per 50 μl reaction volume. The reaction proceeded either for one hour or overnight at 30° C.
Following incubation, 20 μl of reaction mixture was transferred to a high capacity streptavidin coated filter plate (SAM-streptavidin-matrix, Promega) prewetted with phosphate buffered saline. The transferred reaction mix was allowed to contact the streptavidin membrane of the Promega plate for 1-2 minutes. Following capture of biotinylated PHAS-1 with ^32P incorporated, each well was washed to remove unincorporated ^32P-ATP three times with 2M NaCl, three washes of 2M NaCl with 1% phosphoric, three washes of distilled water and finally a single wash of 95% ethanol. Filter plates were air-dried and 20 μl of scintillant was added. The plates were sealed and counted.
A second assay format was also employed that is based on p38 kinase alpha induced phosphorylation of EGFRP (epidermal growth factor receptor peptide, a 21 mer) in the presence ^33P-ATP. Compounds were tested in 10 fold serial dilutions over the range of 100 μM to 0.001 μM in 1% DMSO. Each concentration of inhibitor was tested in triplicate. Compounds were evaluated in 50 μl reaction volumes in the presence of 25 mM Hepes pH 7.5, 10 mM magnesium acetate, 4% glycerol, 0.4% bovine serum albumin, 0.4 mM DTT, 50 μM unlabeled ATP, 25 μg EGFRP (200 μM), and 0.05 μCi ^33P-ATP. Reactions were initiated by addition of 0.09 μg of activated, purified human GST-p38 kinase alpha. Activation was carried out using GST-MKK6 (5:1, p38:MKK6) for one hour at 30° C. in the presence of 50 μM ATP. Following incubation for 60 minutes at room temperature, the reaction was stopped by addition of 150 μl of AG 1×8 resin in 900 mM sodium formate buffer, pH 3.0 (1 volume resin to 2 volumes buffer). The mixture was mixed three times with pipetting and the resin was allowed to settle. A total of 50 μl of clarified solution head volume was transferred from the reaction wells to Microlite-2 plates. 150 μl of Microscint 40 was then added to each well of the Microlite plate, and the plate was sealed, mixed, and counted.
The above protocol assays were used to determine the IC50 values for compounds in Examples 1-71 above.
The term pIC50 denotes the IC50 on a negative log10 scale, so that one unit is a factor of ten. Regarding `CC(C)c1nnc2ccc([C@@H]3C[C@@H]3c3ccc(F)cc3F)cn12` (racemic) [Example 3, Racemic 6-[2-(2,4-difluorophenyl)cyclopropyl]-3-isopropyl[1,2,4]triazolo[4,3-a]pyridine], the pIC50 is 4.77. The compound `COC(=O)c1ccc(C)c(-c2nnc3n2CC(CCc2ccc(F)cc2F)CC3)c1` (racemic) [Example 18, racemic methyl 3-{6-[2-(2,4-difluorophenyl)ethyl]-5,6,7,8-tetrahydro[1,2,4]triazolo[4,3-a]pyridin-3-yl}-4-methylbenzoate] gave a pIC50 of 6.97. For `Cc1ccc(C(=O)O)cc1-c1nnc2n1CC(CCc1ccc(F)cc1F)CC2` (racemic) [Example 19, racemic 3-{6-[2-(2,4-difluorophenyl)ethyl]-5,6,7,8-tetrahydro[1,2,4]triazolo[4,3-a]pyridin-3-yl}-4-methylbenzoic acid] the value was 5.12; for `Cc1ccc(C(N)=O)cc1-c1nnc2n1CC(CCc1ccc(F)cc1F)CC2` (racemic) [Example 20, racemic 3-{6-[2-(2,4-difluorophenyl)ethyl]-5,6,7,8-tetrahydro[1,2,4]triazolo[4,3-a]pyridin-3-yl}-4-methylbenzamide], 5.90. The same measure for `OCC(O)c1ccc(-c2nnc3ccc(Sc4ccc(F)cc4F)cn23)cc1` (racemic) [Example 31, racemic-1-(4-{6-[(2,4-difluorophenyl)thio][1,2,4]triazolo[4,3-a]pyridin-3-yl}phenyl)ethane-1,2-diol hydrochloride]: 8.28; for `CC(C)c1nnc2ccc(Cc3ccc(F)cc3F)cn12` [8 (step 1), 6-(2,4-difluorobenzyl)-3-isopropyl[1,2,4]triazolo[4,3-a]pyridine]: 7.58; for `CC(C)(C)c1nnc2ccc(C(O)c3ccc(F)cc3F)cn12` (stereo not drawn) [15 (step 1), (3-tert-butyl[1,2,4]triazolo[4,3-a]pyridin-6-yl)(2,4-difluorophenyl)methanol]: 6.50.

Compound `C=CCC(C)(C)c1nnc2ccc(Sc3ccc(F)cc3F)cn12` [33 (step 2), 6-[(2,4-difluorophenyl)thio]-3-(1,1-dimethylbut-3-enyl)[1,2,4]triazolo[4,3-a]pyridine hydrochloride] showed a pIC50 of 7.79. Compound `CC1(C)OCC(CC(C)(C)c2nnc3ccc(Sc4ccc(F)cc4F)cn23)O1` (stereo not drawn) [33 (step 3), 6-[(2,4-difluorophenyl)thio]-3-[2-(2,2-dimethyl-1,3-dioxolan-4-yl)-1,1-dimethylethyl][1,2,4]triazolo[4,3-a]pyridine hydrochloride] had a pIC50 of 6.16. The same measure for `CC(C)c1nnc2ccc(Sc3ccc(F)cc3F)cn12` [34 (step 1), 6-[(2,4-difluorophenyl)thio]-3-isopropyl[1,2,4]triazolo[4,3-a]pyridine hydrochloride]: 7.10.

Take `COC(=O)c1ccc(C)c(-c2nnc3ccc(Br)cn23)c1` [41 (step 2), methyl 3-(6-bromo[1,2,4]triazolo[4,3-a]pyridin-3-yl)-4-methylbenzoate]: the pIC50 was 4.89.

Consider `COC(=O)c1ccc(C)c(-c2nnc3ccc(Sc4ccc(F)cc4F)cn23)c1` [41 (step 3), methyl 3-{6-[(2,4-difluorophenyl)thio][1,2,4]triazolo[4,3-a]pyridin-3-yl}-4-methylbenzoate], for which the pIC50 is 8.11.

`Cc1ccc(C(=O)O)cc1-c1nnc2ccc(Sc3ccc(F)cc3F)cn12` [41 (step 4), 3-{6-[(2,4-difluorophenyl)thio][1,2,4]triazolo[4,3-a]pyridin-3-yl}-4-methylbenzoic acid hydrochloride]: the pIC50 was 5.53. For `CC(=O)OCC(=O)N1CCC(c2nnc3ccc(Sc4ccc(F)cc4F)cn23)CC1` [44 (step 4), 2-(4-{6-[(2,4-difluorophenyl)thio][1,2,4]triazolo[4,3-a]pyridin-3-yl}piperidin-1-yl)-2-oxoethyl acetate hydrochloride] the value was 6.44; for `Cc1cc(Br)ccc1-c1nnc2ccc(Sc3ccc(F)cc3F)cn12` [45 (step 2), 3 (4-bromo-2-methylphenyl)-6-[(2,4-difluorophenyl)thio][1,2,4]triazolo[4,3-a]pyridine hydrochloride], 6.85.

The compound `C=Cc1ccc(-c2nnc3ccc(Sc4ccc(F)cc4F)cn23)c(C)c1` [45 (step 3), 6-[(2,4-difluorophenyl)thio]-3-(2-methyl-4-vinylphenyl)[1,2,4]triazolo[4,3-a]pyridine hydrochloride] showed a pIC50 of 6.97. The same measure for `Cc1cc(C(O)CO)ccc1-c1nnc2ccc(Sc3ccc(F)cc3F)cn12` (stereo not drawn) [45 (step 4), 1-(4-{6-[(2,4-difluorophenyl)thio][1,2,4]triazolo[4,3-a]pyridin-3-yl}-3-methylphenyl)ethane-1,2-diol hydrochloride]: 7.55. The same measure for `C=Cc1ccc(-c2nnc3ccc(Cc4ccc(F)cc4F)cn23)cc1` [62 (step 2), 6-(2,4-difluorobenzyl)-3-(4-vinylphenyl)[1,2,4]triazolo[4,3-a]pyridine]: 5.64.

Turning to `CC(C)c1nnc2ccc(/C=C\c3ccc(F)cc3F)cn12` [Example 1, 6-[(Z)-2-(2,4-difluorophenyl)vinyl]-3-isopropyl[1,2,4]triazolo[4,3-a]pyridine], the pIC50 is 6.27. `CC(C)c1nnc2ccc(CCc3ccc(F)cc3F)cn12` [Example 2, 6-[2-(2,4-difluorophenyl)ethyl]-3-isopropyl[1,2,4]triazolo[4,3-a]pyridine] gave a pIC50 of 7.07. For `CC(=O)c1ccc2nnc(C(C)C)n2c1` [Example 4, 1-(3-isopropyl[1,2,4]triazolo[4,3-a]pyridin-6-yl)ethanone] the value was less than 4.00; for `CC(C)c1nnc2ccc(C(=O)Cc3ccc(F)cc3F)cn12` [Example 5, 2-(2,4-difluorophenyl)-1-(3-isopropyl[1,2,4]triazolo[4,3-a]pyridin-6-yl)ethanone], 5.13. The same measure for `CC(C)c1nnc2ccc(COCc3ccc(F)cc3F)cn12` [Example 6, 6-{[(2,4-difluorobenzyl)oxy]methyl}-3-isopropyl[1,2,4]triazolo[4,3-a]pyridine]: less than 4.00; for `CC(C)c1nnc2ccc(-c3cnn(Cc4ccccc4)c3)cn12` [Example 7, 6-(1-benzyl-1H-pyrazol-4-yl)-3-isopropyl[1,2,4]triazolo[4,3-a]pyridine]: less than 4.00. The same measure for `CC(C)c1nnc2n1CC(Cc1ccc(F)cc1F)CC2` (stereo not drawn) [Example 8, 6-(2,4-difluorobenzyl)-3-isopropyl-5,6,7,8-tetrahydro[1,2,4]triazolo[4,3-a]pyridine hydrochloride]: 5.25.

`CC(C)c1nnc2ccc(Cc3ccc(Cl)nc3)cn12` [Example 9, 6-[(6-chloropyridin-3-yl)methyl]-3-isopropyl[1,2,4]triazolo[4,3-a]pyridine] gave a pIC50 of 4.27.

`CC(C)(C)c1nnc2ccc(Cc3ccc(Cl)nc3)cn12` [Example 10, 3-tert-butyl-6-[(6-chloropyridin-3-yl)methyl][1,2,4]triazolo[4,3-a]pyridine] had a pIC50 of 4.67. For `CC(C)c1nnc2ccc(C(=O)Nc3ccc(F)cc3F)cn12` [Example 11, N-(2,4-difluorophenyl)-3-isopropyl[1,2,4]triazolo[4,3-a]pyridine-6-carboxamide] the value was less than 4.00; for `CC(C)(C)c1nnc2ccc(OCc3ccc(F)cc3F)cn12` [Example 12, 3-tert-butyl-6-[(2,4-difluorobenzyl)oxy][1,2,4]triazolo[4,3-a]pyridine], 4.71. The same measure for `CC(C)(C)c1nnc2ccc(O)c(Cc3ccc(F)cc3F)n12` [Example 13, 3-tert-butyl-5-(2,4-difluorobenzyl)[1,2,4]triazolo[4,3-a]pyridin-6-ol]: less than 4.00.
